Laboratory results: US8853193B2, “Thienopyrimidines containing a substituted alkyl group for pharmaceutical compositions” (Boehringer Ingelheim International GmbH, priority 2010, dated 2014)
Structures can show the parent of a compound that is named as a salt.

These molecules were tested against human Mnk2a (Homo sapiens (Human), UniProt Q9HBH9) (assay: Mnk2a in vitro kinase assay (indirect competitive fluorescence polarization)). Conditions: pre-activated GST-Mnk2a 2.5 nM, 20 μM ATP, 30 μM substrate peptide; read-out: MNK2 IC50.
Sequence of human Mnk2a (Q9HBH9 whole entry): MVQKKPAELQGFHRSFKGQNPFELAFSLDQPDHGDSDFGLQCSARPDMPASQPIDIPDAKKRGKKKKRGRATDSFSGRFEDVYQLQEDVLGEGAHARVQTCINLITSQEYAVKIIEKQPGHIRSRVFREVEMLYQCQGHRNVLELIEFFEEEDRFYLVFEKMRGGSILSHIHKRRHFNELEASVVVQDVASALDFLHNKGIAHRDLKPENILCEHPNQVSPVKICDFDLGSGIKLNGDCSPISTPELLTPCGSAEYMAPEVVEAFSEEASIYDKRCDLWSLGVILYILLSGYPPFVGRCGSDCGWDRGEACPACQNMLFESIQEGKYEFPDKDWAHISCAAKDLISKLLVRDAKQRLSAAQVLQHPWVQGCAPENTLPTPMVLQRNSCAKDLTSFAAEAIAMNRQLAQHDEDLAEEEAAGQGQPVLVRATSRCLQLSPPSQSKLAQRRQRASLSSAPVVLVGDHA
Assay type: biochemical
Description: Inhibitory potency of compounds against Mnk1, Mnk2a and other kinases was assessed with assays based on a format known to those skilled in the art as the indirect (competitive) fluorescence polarization. The assay detection system comprises a small fluorophore-labeled phospho-peptide (termed ligand) bound to a phospho-specific antibody. The product generated by the kinase reaction competes with the ligand for antibody binding. Based on the larger molecular volume of the bound ligand, which results in a lower rotation rate in solution, its emitted light has a higher degree of polarization than the one from the free ligand.
In brief, the open reading frames of human Mnk1 and Mnk2a were amplified from cDNA using the forward/reverse primer pairs
(utilized restriction sites underlined), respectively, and cloned into the BamHI and SalI sites of the vector pGEX-4T1 (Amersham, Sweden, cat. no. 27-4580-01). These constructs allow prokaryotic expression of Mnk1 or Mnk2a as fusion protein with a N-terminal glutathione S-transferase (GST) tag, referred to as GST-Mnk1 or GST-Mnk2a. The following expression and purification procedure was identical for GST-Mnk1 and GST-Mnk2a, referring in general to GST-Mnk, when not distinguishing between the two isoforms. Expression of GST-Mnk was in E. coli BL21 (Merck Biosciences, Germany, cat. no. 69449). Cells were grown in LB-Bouillon (Merck, Germany, cat. no. 1.10285) supplemented with 100 μg/ml ampicillin (Sigma, Germany, cat. no. A9518) at 37° C. […] Cells harvested by centrifugation were resuspended in 10 ml lysis buffer (50 mM tris(hydroxymethyl)aminomethane hydrochloride (Tris/HCl, Sigma, Germany, cat. no. T5941) pH 7.5, 300 mM sodium chloride (NaCl, Sigma, Germany, cat. no. S7653), 5% (w/v) glycerol (Sigma, Germany, cat. no. G5516), 3 mM DTT dithiotreitol (DTT, Sigma, Germany, cat. no. D9779)) per gram wet weight cell pellet. Lysates were prepared by disruption of cells with a sonifier and subsequent clearing by centrifugation at 38000 g for 45 min at 4° C.
The lysate was applied to a GSTPrep FF 16/10 column (Amersham, Sweden, cat. no. 17-5234-01) equilibrated with lysis buffer. Removal of unbound material was with 3 column volumes (CV) lysis buffer. Elution was with 2 CV of elution buffer (50 mM Tris/HCl pH 7.5, 300 mM NaCl, 5% (w/v) glycerol, 20 mM glutathione (Sigma, Germany, cat. no. G4251)). Peak fractions were pooled and the protein transferred into storage buffer (50 mM Tris/HCl pH 7.5, 200 mM NaCl, 0.1 mM ethylene glycol[…] bis(2-aminoethylether)-N,N,N′,N′-tetraacetic acid (EGTA, Aldrich, Germany, cat. no. 23, 453-2), 1 mM DTT, 10% (w/v) glycerol, 0.5 M sucrose (Sigma, Germany, cat. no. S0389) by gel filtration on a PD10 desalting column (Amersham, Sweden, cat. no. 17-0851-01). Aliquots were shock frozen in liquid nitrogen and stored at −80° C.
Activation of Mnk1 and Mnk2a was at a concentration of 2.5 μM of either purified GST-Mnk1 or GST-Mnk2a by incubation with 150 nM pre-activated NHis-ERK2 (see ERK2 assay for preparation) and 50 μM adenosine triphosphate (ATP, Sigma, cat. no. A2699) in a buffer comprising 20 mM N-(2-hydroxyethyl)piperazine-N′-(2-ethanesulfonic acid) (HEPES, Fluka, Germany, cat. no 54459)/potassium hydroxide (KOH, Roth, Germany, cat. no 6751.1) pH 7.4, 10 mM magnesium chloride (MgCl2, Sigma, Germany, cat. no. M2670), 0.25 mM DTT, 0.05% (w/v) polyoxyethylene 20 stearylether (Brij 78, Sigma, Germany, cat. no. P4019) (HMDB buffer) for 45 min at 30° C. After the incubation, the preparation was aliquoted into single-use samples, shock frozen in liquid nitrogen, stored at −80° C. and utilized for Mnk1 or Mnk2a kinase assays as detailed below.
The serine residue phosphorylated by Mnk kinases is underlined.

Row | IC50 | Compound
1 | 18 nM | COCC(C)Oc1cc(F)ccc1Nc1ncnc2sc(C(=O)O)c(C)c12 (stereo not drawn) [Compound 32-10]
2 | 13 nM | Cc1c(C(=O)O)sc2ncnc(Nc3ccc(F)cc3OCCO)c12 [Compound 32-9]
3 | 42 nM | Cc1c(C(=O)NCCCCO)sc2ncnc(Nc3cccnc3OC(C)C)c12 [Compound 36-2, N-(4-Hydroxybutyl)-4-(2-isopropoxypyridin-3-ylamino)-5-methylthieno[2,3-d]pyrimidine-6-carboxamide]
4 | 13 nM | CCNC(=O)C(C)Oc1cc(F)ccc1Nc1ncnc2sc(C(=O)NC)c(C)c12 (stereo not drawn) [Compound 31-6, 4-(2-(1-(ethylamino)-1-oxo-propan-2-yloxy)-4-fluorophenyl-amino)-N,5-dimethyl-thieno[2,3-d]pyrimidine-6-carbox-amide]
5 | 22 nM | Cc1c(C(=O)NCC#CCN(C)C)sc2ncnc(Nc3cccnc3OC(C)C)c12 [Compound 36-16]
6 | 26 nM | CCNC(=O)c1sc2ncnc(Nc3cccnc3OC(C)C)c2c1C [Compound 36-3]
7 | 8 nM | Cc1c(C(=O)O)sc2ncnc(Nc3ccc(F)cc3OCC3CC3(F)F)c12 (stereo not drawn) [Compound 32-5]
8 | 8 nM | COCC(C)Oc1cc(F)ccc1Nc1ncnc2sc(C(N)=O)c(C)c12 (stereo not drawn) [Compound 32-37]
9 | 6 nM | Cc1c(C(=O)NCCCN2CCCC2)sc2ncnc(Nc3ccc(F)cc3OC(C)CF)c12 (stereo not drawn) [Compound 32-44]
10 | 86 nM | Cc1c(C(N)=O)sc2ncnc(Nc3cccnc3OCCO)c12 [Compound 29-3, 4-(2-(2-Hydroxyethoxy)pyridin-3-ylamino)-5-methylthieno[2,3-d]pyrimidine-6-carboxamide]
11 | 56 nM | Cc1c(C(N)=O)sc2ncnc(Nc3ccc(F)cc3OC(CO)CO)c12 [Compound 32-30]
12 | 65 nM | Cc1c(C(=O)NCCO)sc2ncnc(Nc3ccc(F)cc3OCCO)c12 [Compound 32-33]
13 | 64 nM | Cc1c(C(=O)NCC2COCCN2)sc2ncnc(Nc3cccnc3OC(C)C)c12 (stereo not drawn) [Compound 36-14, 4-(2-Isopropoxypyridin-3ylamino)-5-methyl-N-(morpholin-3-ylmethyl) thieno[2,3-d]pyrimidine-6-carboxamide]
14 | 146 nM | Cc1c(C(=O)NCCCN(C)C)sc2ncnc(Nc3ccc(F)cc3OC(CO)CO)c12 [Compound 32-31]

Continued, molecule first:

Row | Compound | IC50
15 | COC(=O)c1sc2ncnc(Nc3ccc(C#N)cc3OC(CF)CF)c2c1C [Compound 47, Methyl 4-[4-cyano-2-(2-fluoro-1-fluoromethyl-ethoxy)phenylamino]-5-methyl-thieno[2,3-d]pyrimidine-6-carboxylate] | 125 nM
16 | Cc1c(C(=O)O)sc2ncnc(Nc3ccc(F)cc3OC(C)CN)c12 (stereo not drawn) [Compound 7, 4-(2-(1-Aminopropan-2-yloxy)-4-fluorophenylamino)-5-methyl-thieno[2,3-d]pyrimidine-6-carboxylic acid trifluoroacetate] | 14 nM
17 | COC(=O)c1sc2ncnc(Nc3ccc(F)cc3OC(C)CN(C)C)c2c1C (stereo not drawn) [Compound 4, Methyl 4-(2-(1-dimethylamino)propan-2yloxy)-4-fluorophenylamino)-5-methyl-thieno[2,3-d]pyrimidine-6-carboxylate trifluoroacetate] | 3140 nM
18 | Cc1c(C(=O)NCCO)sc2ncnc(Nc3cccnc3OC(C)CCN)c12 (stereo not drawn) [Compound 42, 4-[2-(3-Amino-1-methyl-propoxy)-3pyridin-3-ylamino]-5-methyl-thieno[2,3-d]pyrimidine-6-carboxylic acid (2-hydroxy-ethyl)-amide] | 70 nM
19 | Cc1c(C(=O)NCCCN(C)C)sc2ncnc(Nc3ccc(F)cc3OCC3CCOCC3)c12 [Compound 26-3] | 790 nM
20 | COC(=O)c1sc2ncnc(Nc3ccc(F)cc3OC(C)C(=O)NCCN(C)C)c2c1C (stereo not drawn) [Compound 62, 4-{2-[1-(2-Dimethylamino-ethylcabamoyl)-ethoxy]-4-fluoro-phenylamino}-5-methyl-thieno[2,3-d]pyrimidine-6-carboxylic acid methyl ester] | 267 nM
21 | Cc1c(C(=O)O)sc2ncnc(Nc3ccc(F)cc3OC(CF)CF)c12 [Compound 23-2, 4-(2-(1,3-Difluoropropan-2-yloxy)-4-fluorophenylamino)-5-methyl-thieno[2,3-d]pyrimidine-6-carboxylic acid] | 6 nM
22 | Cc1c(C(=O)NCCCN(C)C)sc2ncnc(Nc3cccnc3OC(C)C(F)(F)F)c12 (stereo not drawn) [Compound 21-5, N-(3-(dimethyl-amino)propyl)-5-methyl-4-(2-(1,1,1-trifluoro-propan-2-yloxy)-pyridin-3-yl-amino)thieno[2,3-d]pyrimidine-6-carboxamide] | 42 nM
23 | COC(=O)c1sc2ncnc(Nc3ccc(F)cc3OC(C)CCN(C)C)c2c1C (stereo not drawn) [Compound 14] | 1020 nM
24 | Cc1c(C(=O)NCCO)sc2ncnc(Nc3ccc(F)cc3OC(CF)CF)c12 [Compound 23-8] | 8 nM
25 | Cc1c(C(=O)NCCCN(C)C)sc2ncnc(Nc3ccc(F)cc3OC(C)CN)c12 (stereo not drawn) [Compound 2-2, 4-(2-(1-Amino-propan-2-yloxy)-4-fluorophenylamino)-N-(3-(diemthyl-amino)propyl)-5-methylthieno[2,3-d]pyrimidine-6-carboxamide bis(trifloroacetate)] | 41 nM
26 | CCNC(=O)C(C)Oc1cc(F)ccc1Nc1ncnc2sc(C(=O)NCCCN(C)C)c(C)c12 (stereo not drawn) [Compound 40, 4-[2-(1-Ethylcarbamoyl-ethoxy)-4-fluoro-phenylamino]-5-methyl-thieno[2,3-d]pyrimidine-6-carboxylic acid (3-dimethylamino-propyl)-amide] | 20 nM
27 | Cc1c(C(=O)NCCO)sc2ncnc(Nc3ccc(F)cc3OC(C)C(=O)NCCN)c12 (stereo not drawn) [Compound 59, 4-{2-[1-(2-Amino-ethylcarbamoyl)-ethoxy]-4-fluoro-phenylamino}-5-methyl-thieno[2,3-d]pyrimidine-6-carboxylic acid (2-hydroxy-ethyl)amide] | 29 nM
28 | Cc1c(C(=O)NC2CCN(C)CC2)sc2ncnc(Nc3ccc(C#N)cc3OC(CF)CF)c12 [Compound 50, 4-(4-Cyano-2-(2-fluoro-1-fluoromethyl-ethoxy)-phenylamino]-5-methyl-thieno[2,3-d]pyrimidine-6-carboxylic acid (1-methyl-piperidin-4-yl)-amide] | 13 nM
29 | Cc1c(C(N)=O)sc2ncnc(Nc3cccnc3OC(C)CCN)c12 (stereo not drawn) [Compound 16-4] | 44 nM
30 | Cc1c(C(N)=O)sc2ncnc(Nc3ccc(F)cc3OC(C)C(C)(C)O)c12 (stereo not drawn) [Compound 60, 4-[4-Fluoro-2-(2-hydroxy-1,2-dimethyl-propoxy)-phenylamino]-5-methyl-thieno[2,3-d]pyrimidine-6-carboxylic acid amide] | 37 nM
31 | Cc1c(C(N)=O)sc2ncnc(Nc3ccc(F)cc3OC(C)CNC(=O)OC(C)(C)C)c12 (stereo not drawn) [Compound 5, tert-Butyl 2-(2-(6-carbamoyl-5-methyl-thieno[2,3-d]pyrimidin-4-ylamino)-5-fluorophenoxy)propylcarbamate] | 230 nM
32 | Cc1c(C(=O)N[C@@H]2C[C@H]2NC(=O)OC(C)(C)C)sc2ncnc(Nc3ccc(F)cc3OC(CF)CF)c12 [Compound 23-5, Tert-butyl (1R,2R)-2-(4-2(1,3-difluoro-propan-[2,3-d]pyrimidine-6-carboxamido)cyclopropyl carbamate] | 13 nM
33 | CCC(CN)Oc1cc(F)ccc1Nc1ncnc2sc(C(=O)OC)c(C)c12 (stereo not drawn) [Compound 10-2, Methyl 4-(2-(1-aminobutan-2yloxy)-4-fluorophenylamino)-5-methyl-thieno[2,3-d]pyrimidine-6-carboxylate hydrochloride] | 229 nM
